The values below come from patent US12365668B2, “Aminopyrazine diol compounds as PI3K-y inhibitors” (Incyte Corporation, priority 2018, dated 2025).

For assay [1], the system named is Phosphorylated Ribosomal Protein S6 (RPS6) in THP-1 cells. The experiment in a line: THP-1 RPS6 ELISA Assay. Particulars: serum starved, 2 hours compound, 10 nM MCP-1 for 15 minutes, Phospho-RPS6 ELISA, read-out: PI3Kγ_THP1_RPS6_ELISA IC50. It counts as cell-based, Human. The procedure: Example A. THP-1 RPS6 ELISA Assay
To measure the Phosphorylated Ribosomal Protein S6 (RPS6) in cell lysates, THP-1 cells (Human Acute Monocytic Leukemia) are purchased from ATCC (Manassas, VA) and maintained in RPMI with 10% FBS (Gibco/Life Technologies, Carlsbad, CA). For the assay, THP-1 cells are serum starved overnight in RPMI, then plated in RPMI (2×10^5 cells/well in 90 μL) into 96-well flat-bottom tissue culture treated plates (Corning, Corning, NY), in the presence or absence of a concentration range of test compounds. Covered plates are incubated for 2 hours at 37° C., 5% CO2 then treated with or without 10 nM MCP-1(MYBioSource, San Diego, CA) for 15 minutes at 37° C., 5% CO2. Plates are centrifuged at 1600 RPM and supernatants are removed. Cells are lysed in Lysis Buffer (Cell Signaling, Danvers, MA) with Protease Inhibitor (Calbiochem/EMD, Germany), PMSF (Sigma, St Louis MO), HALTS (Thermo Fisher, Rockford, IL) for 30 min on wet ice. Cell lysates are frozen at −80° C. before testing. The lysates are tested in the Human/Mouse/Rat Phospho-RPS6 ELISA (R&D Systems, Inc. Minn, MN). The plate is measured using a microplate reader (SpectraMax M5—Molecular Devices, LLC Sunnyvale, CA) set to 450 nm with a wavelength correction of 540. IC50 determination is performed by fitting the curve of inhibitor percent inhibition versus the log of the inhibitor concentration using the GraphPad Prism 5.0 software.
A general note: An ELISA detects its analyte on a solid surface through an enzyme-linked reagent.

In assay [2] the target is PI3Kδ (p110δ/p85α) Recombinant Human Protein (Homo sapiens (Human), UniProt O00329). The experiment in a line: PI3Kδ Scintillation Proximity Assay. Conditions: 20 μM PIP2, 2 μM ATP, SPA. It counts as biochemical. An excerpt: Example C. PI3Kδ Scintillation Proximity Assay Materials: [γ-^33P]ATP (10 mCi/mL) and Wheat Germ Agglutinin (WGA) YSi SPA Scintillation Beads was purchased from Perkin Elmer (Waltham, MA). Lipid kinase substrate, D-myo-Phosphatidylinositol 4,5-bisphosphate (PtdIns(4,5)P2)D (+)-sn-1,2-di-O-octanoylglyceryl, 3-O-phospho linked (PIP2), CAS 204858-53-7, was purchased from Echelon Biosciences (Salt Lake City, UT). PI3Kδ (p110δ/p85α) Recombinant Human Protein was purchased from Eurofins (St Charles, MO). ATP, MgCl2, DTT, EDTA, MOPS and CHAPS were purchased from Sigma Aldrich (St. Louis, MO). The kinase reaction was conducted in polystyrene 384-well Greiner Bio-one white plate from Thermo Fisher Scientific in a final volume of 25 μL. Inhibitors were first diluted serially in DMSO and added to the plate wells before the addition of other reaction components. The final concentration of DMSO in the assay was 2%. The PI3Kδ assay was carried out at room temperature in 20 mM MOPS, pH 6.7, 10 mM MgCl2, 5 mM DTT and CHAPS 0.03%. Reactions were initiated by the addition of ATP, the final reaction mixture consisted of 20 μM PIP2, 2 μM ATP, 0.5 μCi [γ-^33P] ATP, 3.4 nM PI3Kδ. Reactions were incubated for 120 min and terminated by the addition of 40 μL SPA beads suspended in quench buffer: 163 mM potassium phosphate pH 7.8, 20% glycerol, 25 mM EDTA. The final concentration of SPA beads is 1.0 mg/mL. After the plate sealing, plates were shaken overnight at room temperature and centrifuged at 1500 rpm for 10 min, the radioactivity of the product was determined by scintillation counting on Topcount (PerkinElmer). IC50 determination was performed by fitting the curve of percent of the solvent control activity versus the log of the inhibitor concentration using the GraphPad Prism 6.0 software.
PI3Kδ (p110δ/p85α) Recombinant Human Protein, sequence (O00329 whole entry): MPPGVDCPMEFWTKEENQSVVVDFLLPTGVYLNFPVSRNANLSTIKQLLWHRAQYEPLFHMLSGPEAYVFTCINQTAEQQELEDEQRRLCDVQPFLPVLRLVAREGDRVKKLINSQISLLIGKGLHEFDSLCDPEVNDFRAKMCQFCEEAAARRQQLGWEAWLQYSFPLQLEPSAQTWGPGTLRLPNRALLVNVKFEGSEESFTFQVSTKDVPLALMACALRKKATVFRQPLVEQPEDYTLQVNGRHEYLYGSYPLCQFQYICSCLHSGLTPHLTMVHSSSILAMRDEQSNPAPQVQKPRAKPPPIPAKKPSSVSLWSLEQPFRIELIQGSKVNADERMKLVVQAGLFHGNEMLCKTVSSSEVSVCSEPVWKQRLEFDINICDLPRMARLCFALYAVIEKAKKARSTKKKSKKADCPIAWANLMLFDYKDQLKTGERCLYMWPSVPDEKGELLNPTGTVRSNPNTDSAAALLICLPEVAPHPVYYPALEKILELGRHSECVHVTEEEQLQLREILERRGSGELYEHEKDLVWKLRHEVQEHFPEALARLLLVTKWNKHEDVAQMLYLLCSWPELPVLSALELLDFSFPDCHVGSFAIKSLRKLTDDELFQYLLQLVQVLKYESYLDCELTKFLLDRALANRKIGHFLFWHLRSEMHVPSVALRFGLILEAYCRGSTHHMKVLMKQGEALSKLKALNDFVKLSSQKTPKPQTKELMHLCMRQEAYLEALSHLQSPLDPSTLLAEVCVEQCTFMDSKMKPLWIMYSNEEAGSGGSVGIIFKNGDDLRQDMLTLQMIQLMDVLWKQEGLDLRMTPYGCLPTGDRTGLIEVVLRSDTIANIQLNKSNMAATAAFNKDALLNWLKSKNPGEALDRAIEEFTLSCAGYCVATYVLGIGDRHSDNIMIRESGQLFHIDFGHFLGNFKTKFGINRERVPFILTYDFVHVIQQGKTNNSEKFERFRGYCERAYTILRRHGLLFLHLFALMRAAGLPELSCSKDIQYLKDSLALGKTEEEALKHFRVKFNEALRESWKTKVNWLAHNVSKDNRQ
PI3Kδ (p110δ/p85α) Recombinant Human Protein, sequence (P27986 whole entry partner): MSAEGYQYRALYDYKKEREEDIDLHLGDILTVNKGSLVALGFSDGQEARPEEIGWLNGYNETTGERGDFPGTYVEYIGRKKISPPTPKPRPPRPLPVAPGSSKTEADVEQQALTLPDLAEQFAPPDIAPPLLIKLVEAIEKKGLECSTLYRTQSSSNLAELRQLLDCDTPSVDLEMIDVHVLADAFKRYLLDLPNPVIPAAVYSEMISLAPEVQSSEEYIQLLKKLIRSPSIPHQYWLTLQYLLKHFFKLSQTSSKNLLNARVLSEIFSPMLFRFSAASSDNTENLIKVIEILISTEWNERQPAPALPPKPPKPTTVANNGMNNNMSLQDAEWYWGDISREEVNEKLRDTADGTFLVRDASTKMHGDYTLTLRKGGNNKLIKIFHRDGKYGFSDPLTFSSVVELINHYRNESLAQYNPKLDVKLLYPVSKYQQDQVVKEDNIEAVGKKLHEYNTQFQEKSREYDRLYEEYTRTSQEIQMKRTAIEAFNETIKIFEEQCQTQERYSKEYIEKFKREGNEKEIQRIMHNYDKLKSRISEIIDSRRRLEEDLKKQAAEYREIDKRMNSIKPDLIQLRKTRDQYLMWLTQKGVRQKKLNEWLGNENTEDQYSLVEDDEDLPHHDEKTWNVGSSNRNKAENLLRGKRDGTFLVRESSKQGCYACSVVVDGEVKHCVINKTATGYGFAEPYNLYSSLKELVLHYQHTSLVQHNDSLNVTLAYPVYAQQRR
(In a scintillation proximity assay essentially only radioactivity close to the scintillant gives light.)

Assay [3] concerns the target PI3Kγ (p110γ) Recombinant Human Protein (Homo sapiens (Human), UniProt P48736). The experiment in a line: PI3K-γ Scintillation Proximity Assay. It counts as biochemical. Particulars: 20 μM PIP2, 2 μM ATP, SPA. An excerpt:
Example B. PI3K-γ Scintillation Proximity Assay Materials: [γ-^33P]ATP (10 mCi/mL) and Wheat Germ Agglutinin (WGA) YSi SPA Scintillation Beads was purchased from Perkin Elmer (Waltham, MA). Lipid kinase substrate, D-myo-Phosphatidylinositol 4,5-bisphosphate (PtdIns(4,5)P2)D (+)-sn-1,2-di-O-octanoylglyceryl, 3-O-phospho linked (PIP2), CAS 204858-53-7, was purchased from Echelon Biosciences (Salt Lake City, UT). PI3Kγ (p110γ) Recombinant Human Protein was purchased from Life technology (Grand Island, NY). ATP, MgCl2, DTT, EDTA, MOPS and CHAPS were purchased from Sigma Aldrich (St. Louis, MO). The kinase reaction was conducted in polystyrene 384-well Greiner Bio-one white plate from Thermo Fisher Scientific in a final volume of 25 μL. Inhibitors were first diluted serially in DMSO and added to the plate wells before the addition of other reaction components. The final concentration of DMSO in the assay was 2%. The PI3Kγ assay was carried out at room temperature in 20 mM MOPS, pH 6.7, 10 mM MgCl2, 5 mM DTT and CHAPS 0.03%. Reactions were initiated by the addition of ATP, the final reaction mixture consisted of 20 μM PIP2, 2 μM ATP, 0.5 μCi [γ-^33P] ATP, 13 nM PI3Kγ. Reactions were incubated for 120 min and terminated by the addition of 40 μL SPA beads suspended in quench buffer: 163 mM potassium phosphate pH 7.8, 20% glycerol, 25 mM EDTA. The final concentration of SPA beads is 1.0 mg/mL. After the plate sealing, plates were shaken overnight at room temperature and centrifuged at 1500 rpm for 10 min, the radioactivity of the product was determined by scintillation counting on Topcount (Perkin-Elmer). IC50 determination was performed by fitting the curve of percent of the solvent control activity versus the log of the inhibitor concentration using the GraphPad Prism 6.0 software.

In general, pIC50 refers to the IC50 on a negative log10 scale, so that one unit is a factor of ten.

Each structure is given as a SMILES string. pIC50: −log10 of the molar value. Read-outs that look alike come from different tables or passages of the source.

PI3Kγ (p110γ) Recombinant Human Protein, sequence (P48736 whole entry): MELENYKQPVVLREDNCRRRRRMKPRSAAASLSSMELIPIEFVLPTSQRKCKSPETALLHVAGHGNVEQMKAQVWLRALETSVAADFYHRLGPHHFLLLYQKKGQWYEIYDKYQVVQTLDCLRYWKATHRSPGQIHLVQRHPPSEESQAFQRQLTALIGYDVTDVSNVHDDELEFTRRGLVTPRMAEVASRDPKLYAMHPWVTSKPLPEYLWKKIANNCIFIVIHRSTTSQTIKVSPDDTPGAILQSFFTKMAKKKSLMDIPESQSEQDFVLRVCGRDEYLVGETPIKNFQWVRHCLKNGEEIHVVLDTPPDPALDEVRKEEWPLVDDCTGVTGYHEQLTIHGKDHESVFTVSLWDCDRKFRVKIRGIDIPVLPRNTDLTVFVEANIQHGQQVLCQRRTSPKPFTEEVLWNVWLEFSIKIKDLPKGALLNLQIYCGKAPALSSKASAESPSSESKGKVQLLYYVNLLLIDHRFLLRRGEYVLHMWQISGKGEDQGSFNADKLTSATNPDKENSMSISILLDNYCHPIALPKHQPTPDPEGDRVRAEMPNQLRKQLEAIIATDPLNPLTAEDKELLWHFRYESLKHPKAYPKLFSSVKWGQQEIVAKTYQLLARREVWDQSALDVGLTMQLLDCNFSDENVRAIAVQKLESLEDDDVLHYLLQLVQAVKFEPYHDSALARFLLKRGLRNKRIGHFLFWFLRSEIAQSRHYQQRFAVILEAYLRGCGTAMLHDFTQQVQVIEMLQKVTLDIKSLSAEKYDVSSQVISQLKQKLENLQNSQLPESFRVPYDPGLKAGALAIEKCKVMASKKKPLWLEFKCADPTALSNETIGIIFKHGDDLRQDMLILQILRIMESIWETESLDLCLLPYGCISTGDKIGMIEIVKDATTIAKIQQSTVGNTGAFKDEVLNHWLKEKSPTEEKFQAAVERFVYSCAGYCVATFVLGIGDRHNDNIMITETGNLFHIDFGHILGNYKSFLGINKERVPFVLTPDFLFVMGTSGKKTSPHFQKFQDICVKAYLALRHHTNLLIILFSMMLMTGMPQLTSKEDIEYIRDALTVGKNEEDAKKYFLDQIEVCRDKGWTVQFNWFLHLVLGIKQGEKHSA

Turning to `Cc1ccc(C(O)(CO)C(F)(F)F)cc1-c1cnc(N)c(-n2cncn2)n1` (single isomer, unassigned) [Example 15, 2-(3-(5-Amino-6-(1H-1,2,4-triazol-1-yl)pyrazin-2-yl)-4-methylphenyl)-3,3,3-trifluoropropane-1,2-diol], the pIC50 is 6.30 to 7.00 in assay [1] (Homo sapiens), at least 7.00 in assay [2] and at least 7.00 in assay [3].
Consider `Cc1ccc(C(O)(CO)C(F)(F)F)cc1-c1cnc(N)c(-n2nccn2)n1` (stereo not shown) [Example 14, 2-(3-(5-Amino-6-(1H-1,2,3-triazol-2-yl)pyrazin-2-yl)-4-methylphenyl)-3,3,3-trifluoropropane-1,2-diol], for which the negative-log IC50 (pIC50) in assay [1] is over 7.00; in assay [2], at least 7.00; in assay [3], at least 7.00.
For `Cc1ccc(C(O)(CO)C(F)(F)F)cc1-c1cnc(N)c(C2CN(S(=O)(=O)c3ccn(C)n3)C2)n1` (stereo not shown) [Example 23, 2-(3-(5-Amino-6-(1-((1-methyl-1H-pyrazol-3-yl)sulfonyl)azetidin-3-yl)pyrazin-2-yl)-4-methylphenyl)-3,3,3-trifluoropropane-1,2-diol], the pIC50 in assay [1] (Homo sapiens) and in assay [2] was 6.30 to 7.00 throughout.
Consider `Cc1ccc([C@](O)(CO)C(F)F)cc1-c1cnc(N)c(C(=O)N2CCC[C@@H]2CO)n1` [Example 45, (3-Amino-6-(5-((S)-1,1-difluoro-2,3-dihydroxypropan-2-yl)-2-methylphenyl)pyrazin-2-yl)((R)-2-(hydroxymethyl)pyrrolidin-1-yl)methanone], for which the pIC50 was 6.30 to 7.00 in assay [1] and 5.70 to 6.30 in assay [2].
